Legend:
PIK3CD (Human) = PIK3CD (Human) (UniProt O00329); test: Inhibition of PIK3CD Kinase Activity
PIK3CA (human) = PIK3CA (human) (UniProt P42336); test: Inhibition of PIK3CA Kinase Activity
PIK3CA (human), sequence (P42336 whole entry, looked up): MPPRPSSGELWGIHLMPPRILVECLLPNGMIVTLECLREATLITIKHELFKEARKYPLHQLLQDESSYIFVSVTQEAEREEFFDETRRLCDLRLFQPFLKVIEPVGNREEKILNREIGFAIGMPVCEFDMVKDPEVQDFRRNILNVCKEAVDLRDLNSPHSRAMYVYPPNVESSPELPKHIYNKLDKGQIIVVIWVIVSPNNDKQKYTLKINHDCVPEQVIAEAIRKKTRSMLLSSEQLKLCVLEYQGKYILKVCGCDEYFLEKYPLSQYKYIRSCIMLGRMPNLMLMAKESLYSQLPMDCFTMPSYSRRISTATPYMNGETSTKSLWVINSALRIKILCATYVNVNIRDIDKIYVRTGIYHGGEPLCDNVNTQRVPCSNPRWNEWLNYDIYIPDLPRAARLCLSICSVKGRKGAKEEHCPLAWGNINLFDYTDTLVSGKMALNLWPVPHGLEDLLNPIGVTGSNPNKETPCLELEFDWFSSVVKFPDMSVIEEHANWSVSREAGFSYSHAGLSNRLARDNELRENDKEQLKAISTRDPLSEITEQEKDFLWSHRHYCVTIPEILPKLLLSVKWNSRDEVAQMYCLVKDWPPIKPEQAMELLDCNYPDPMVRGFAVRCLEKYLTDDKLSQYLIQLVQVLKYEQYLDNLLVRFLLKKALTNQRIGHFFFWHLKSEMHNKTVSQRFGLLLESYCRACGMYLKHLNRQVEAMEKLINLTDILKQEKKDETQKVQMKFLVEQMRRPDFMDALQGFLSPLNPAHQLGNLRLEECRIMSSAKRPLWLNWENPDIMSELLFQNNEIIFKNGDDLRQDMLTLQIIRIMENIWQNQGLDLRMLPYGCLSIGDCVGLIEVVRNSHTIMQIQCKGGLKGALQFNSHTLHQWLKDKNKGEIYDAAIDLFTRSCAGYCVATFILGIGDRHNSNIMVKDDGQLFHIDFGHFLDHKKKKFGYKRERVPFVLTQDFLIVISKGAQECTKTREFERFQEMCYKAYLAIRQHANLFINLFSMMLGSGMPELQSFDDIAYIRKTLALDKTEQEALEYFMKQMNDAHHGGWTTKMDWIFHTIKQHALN

PIK3CD (Human), sequence (O00329 whole entry, looked up): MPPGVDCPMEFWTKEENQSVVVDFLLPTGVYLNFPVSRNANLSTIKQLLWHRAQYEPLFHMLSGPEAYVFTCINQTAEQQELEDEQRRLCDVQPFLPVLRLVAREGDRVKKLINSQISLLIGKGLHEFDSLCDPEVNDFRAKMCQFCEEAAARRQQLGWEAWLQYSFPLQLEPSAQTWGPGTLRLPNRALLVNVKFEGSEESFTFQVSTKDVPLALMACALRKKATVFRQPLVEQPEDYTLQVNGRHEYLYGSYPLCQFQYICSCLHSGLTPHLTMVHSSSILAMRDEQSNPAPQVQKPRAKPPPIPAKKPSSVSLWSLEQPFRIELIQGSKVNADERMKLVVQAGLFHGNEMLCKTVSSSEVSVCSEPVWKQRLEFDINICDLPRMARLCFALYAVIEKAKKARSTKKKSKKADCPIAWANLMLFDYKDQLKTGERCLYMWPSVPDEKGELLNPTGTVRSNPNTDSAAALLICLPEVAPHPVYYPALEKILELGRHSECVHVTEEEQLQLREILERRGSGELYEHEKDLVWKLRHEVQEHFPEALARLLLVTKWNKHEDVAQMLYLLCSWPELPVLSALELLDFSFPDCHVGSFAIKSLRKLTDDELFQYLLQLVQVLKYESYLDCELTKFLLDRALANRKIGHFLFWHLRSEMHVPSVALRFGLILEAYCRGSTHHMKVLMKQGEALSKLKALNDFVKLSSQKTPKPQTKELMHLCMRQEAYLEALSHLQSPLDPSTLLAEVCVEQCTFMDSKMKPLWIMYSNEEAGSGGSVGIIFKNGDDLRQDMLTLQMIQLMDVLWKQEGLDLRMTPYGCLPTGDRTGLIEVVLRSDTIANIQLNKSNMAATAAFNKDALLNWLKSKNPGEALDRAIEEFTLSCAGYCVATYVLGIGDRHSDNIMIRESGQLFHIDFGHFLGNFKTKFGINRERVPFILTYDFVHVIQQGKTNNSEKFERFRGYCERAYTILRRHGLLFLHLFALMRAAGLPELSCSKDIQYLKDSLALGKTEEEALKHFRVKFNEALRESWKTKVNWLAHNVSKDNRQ

| IC50 (PIK3CD (Human)) | IC50 (PIK3CA (human)) | Compound |
| --- | --- | --- |
| 0.31 µM | 0.039 µM | Cc1ccc([N+](=O)[O-])cc1S(=O)(=O)NN=C(c1cnn2ccc(C#N)cc12)C(C)C |
|  | 0.057 µM | CNCCN(C)c1ccc([N+](=O)[O-])cc1S(=O)(=O)NN=C(C)c1cnn2ccc(Br)cc12 |
| 0.66 µM | 0.33 µM | CC(=NN(C)S(=O)(=O)c1cc([N+](=O)[O-])ccc1N(C)CCN(C)C)c1cnn2ccc(C#N)cc12 |
|  | 0.33 µM | CC(=NNS(=O)(=O)c1cc([N+](=O)[O-])ccc1N(C)CCCN1CCOCC1)c1cnn2ccc(C#N)cc12 |
|  | 0.3 µM | CC(=NNS(=O)(=O)c1cc([N+](=O)[O-])ccc1F)c1cnc2ccc(Br)cn12 |
|  | 0.092 µM | CC(=NNS(=O)(=O)c1cc([N+](=O)[O-])ccc1N(C)CCn1ccnc1)c1cnn2ccc(Br)cc12 |
|  | 0.45 µM | CC(=NNS(=O)(=O)c1cc([N+](=O)[O-])ccc1N(C)CCCN1CCOCC1)c1cnn2ccc(Br)cc12 |
|  | 0.14 µM | CCN(CC)CCN(C)c1ccc([N+](=O)[O-])cc1S(=O)(=O)NN=C(C)c1cnn2ccc(C#N)cc12 |
|  | 0.023 µM | CC(=NNS(=O)(=O)c1cc([N+](=O)[O-])ccc1N(C)CCc1ccccn1)c1cnn2ccc(C#N)cc12 |
| 0.5 µM | 0.32 µM | CC(=NNS(=O)(=O)c1cc([N+](=O)[O-])ccc1F)c1cnn2ccc(Br)cc12 |
| 0.011 µM | 0.0048 µM | CC(=NNS(=O)(=O)c1cc([N+](=O)[O-])ccc1N(C)Cc1ccccn1)c1cnn2ccc(C#N)cc12 |
|  | 0.46 µM | CCN(CC)CCN(C)c1ccc([N+](=O)[O-])cc1S(=O)(=O)N(C)N=C(C)c1cnn2ccc(C#N)cc12 |
|  | 0.044 µM | CC(=NNS(=O)(=O)c1cc([N+](=O)[O-])ccc1N(C)CCc1ccncc1)c1cnn2ccc(Br)cc12 |
| 0.58 µM | 0.0052 µM | CC(=NN(C)S(=O)(=O)c1cc([N+](=O)[O-])ccc1N(C)Cc1ccccn1)c1cnn2ccc(C#N)cc12 |
|  | 0.48 µM | CC(=NN(C)S(=O)(=O)c1cc([N+](=O)[O-])ccc1N(C)CCc1ccccn1)c1cnn2ccc(C#N)cc12 |
|  | 0.053 µM | CC(=NNS(=O)(=O)c1cc([N+](=O)[O-])ccc1N(C)Cc1cccnc1)c1cnn2ccc(Br)cc12 |
|  | 0.33 µM | CC(=NNS(=O)(=O)c1cc([N+](=O)[O-])ccc1N(C)CCN(C)C)c1cnc2ccc(Br)cn12 |

| IC50 (PIK3CD (Human)) | IC50 (PIK3CA (human)) | Compound |
| --- | --- | --- |
|  | 0.09 µM | CC(=NNS(=O)(=O)c1cc([N+](=O)[O-])ccc1N(C)CCc1ccccn1)c1cnn2ccc(Br)cc12 |
|  | 0.2 µM | CC(=NNS(=O)(=O)c1cc([N+](=O)[O-])ccc1N(C)Cc1ccncc1)c1cnn2ccc(Br)cc12 |
| 0.86 µM | 0.02 µM | CC(=NNS(=O)(=O)c1cc([N+](=O)[O-])ccc1N(C)CCn1ccnc1)c1cnn2ccc(C#N)cc12 |
|  | 0.1 µM | CC(=NNS(=O)(=O)c1cc([N+](=O)[O-])ccc1N(C)CCCN(C)C)c1cnn2ccc(C#N)cc12 |
|  | 0.16 µM | CC(=NNS(=O)(=O)c1cc([N+](=O)[O-])ccc1N(C)CCc1c[nH]cn1)c1cnn2ccc(Br)cc12 |
| 0.33 µM | 0.04 µM | CC(=NNS(=O)(=O)c1cc([N+](=O)[O-])ccc1N(C)Cc1ccncc1)c1cnn2ccc(C#N)cc12 |
| 0.39 µM | 0.082 µM | CNCCN(C)c1ccc([N+](=O)[O-])cc1S(=O)(=O)NN=C(C)c1cnn2ccc(C#N)cc12 |
|  | 0.0073 µM | CC(=NNS(=O)(=O)c1cc([N+](=O)[O-])ccc1C)c1cnn2ccc(C#N)cc12 |
|  | 0.24 µM | CC(=NN(C)S(=O)(=O)c1cc([N+](=O)[O-])ccc1N(C)CCN1CCCCC1)c1cnn2ccc(C#N)cc12 |
| 0.68 µM | 0.051 µM | CC(=NNS(=O)(=O)c1cc([N+](=O)[O-])ccc1N(C)CCN(C)C)c1cnn2ccc(C#N)cc12.CCCCCC |
|  | 0.0098 µM | CCC(=NNS(=O)(=O)c1cc([N+](=O)[O-])ccc1C)c1cnn2ccc(C#N)cc12 |
|  | 0.055 µM | CC(=NNS(=O)(=O)c1cc([N+](=O)[O-])ccc1N(C)CCN1CCCCC1)c1cnn2ccc(C#N)cc12 |
| 0.22 µM | 0.022 µM | CC(=NNS(=O)(=O)c1cc([N+](=O)[O-])ccc1N(C)CCN1CCN(S(C)(=O)=O)CC1)c1cnn2ccc(C#N)cc12 |
| 0.23 µM | 0.0073 µM | CC(=NNS(=O)(=O)c1cc([N+](=O)[O-])ccc1N(C)Cc1ccccn1)c1cnn2ccc(Br)cc12 |
| 0.42 µM | 0.049 µM | CC(=NNS(=O)(=O)c1cc([N+](=O)[O-])ccc1N(C)CCc1ccncc1)c1cnn2ccc(C#N)cc12 |
| 0.22 µM | 0.03 µM | CC(=NNS(=O)(=O)c1cc([N+](=O)[O-])ccc1C)c1cnn2ccc(Br)cc12.CCCCCC |

| Compound | IC50 (PIK3CD (Human)) | IC50 (PIK3CA (human)) |
| --- | --- | --- |
| CC(=NNS(=O)(=O)c1cc([N+](=O)[O-])ccc1N(C)CCc1c[nH]cn1)c1cnn2ccc(C#N)cc12.CCCCCC | 0.17 µM | 0.033 µM |
| CCCCCC.CCN(CC)CCN(C)c1ccc([N+](=O)[O-])cc1S(=O)(=O)NN=C(C)c1cnn2ccc(Br)cc12 |  | 0.23 µM |
| CC(=NNS(=O)(=O)c1cc([N+](=O)[O-])ccc1N(C)CCN)c1cnn2ccc(C#N)cc12.CCCCCC |  | 0.34 µM |
| CC(=NNS(=O)(=O)c1cc([N+](=O)[O-])ccc1N(C)CCN1CCN(S(C)(=O)=O)CC1)c1cnn2ccc(Br)cc12.CCCCCC |  | 0.042 µM |
